From patent US7998474B2, “Methods for treating an inflammatory disease of the bowel” (Rowett Research Institute, priority 2001, dated 2011)
Marks after values point to notes of the source that are not given here.

What was measured:
[1] = system: Caco-2 cells; experiment: Inflammatory cytokine gene expression in Caco-2 cells exposed to S. enteritidis (macroarray, Northern, real-time PCR); format: cell-based
[2] = system: PPARγ; experiment: Northern hybridisation of PPAR mRNA in Caco-2 cells; format: cell-based; conditions: 2 hours
[3] = system: RelA [NF-κB p65]; experiment: Immunofluorescence localisation of RelA in Caco-2 cells; format: cell-based
[4] = system: PPARγ; experiment: Cellular distribution of PPARγ in Caco-2 cells (immunocytochemistry, western blot)
[5] = system: IL-8; experiment: IL-8 protein in culture supernatants (ELISA); conditions: co-culture with S. enteritidis over 4 h (S. enteritidis alone 400 pg/ml)
[6] = system: Immunoreactive MPO; experiment: Immunoreactive MPO in intestinal contents or faeces (competitive ELISA); format: in vivo, Hooded Lister rats; conditions: during 6d post-infection, mean ± SD, n = 6
Protocol: Immunoreactive MPO in intestinal contents or faeces was determined by a competitive ELISA method. Microtiter plates (Immulon 4, Dynex Technologies, Ashford, UK) were coated [10 ng/well] with human myeloperoxidase in 10 mM phosphate buffered saline pH 7.4 [PBS] overnight at 4° C. After washing [PBS containing Tween-20 (1 ml/l], plates were blocked with PBS containing bovine serum albumin (BSA, 10 g/l) for 1 hour at room temperature. Plates were washed and samples or standards added [50 μl/well] and serially diluted in PBS containing BSA (1 g/l), Tween-20 (1 ml/l) and leupeptin (1 mg/l). Rabbit anti-human myeloperoxidase antibody [Calbiochem, UK, 50 μl/well of 1:4000 dilution] was also added. The plates were incubated for 1 hour, washed and then reacted for 1 hour with biotinylated anti-rabbit IgG followed by Extravidin/peroxidase (EXTRA-3 kit, Sigma-Aldrich, Poole, UK). After washing, TMB reagent (7 μl/well) was added and incubated in the dark for up to 2 hours. The reaction was stopped by addition (50 μl/well) of 0.18M H2SO4 and the absorbance read at 450 nm. Values were expressed as immunoreactive MPO equivalents.

[7] = system: p38 MAP kinase; experiment: Western blot of MAP kinase phosphorylation in Caco-2 cells; format: cell-based; conditions: co-incubation
[8] = Viability of the bacterium in jelly; conditions: commercial jelly prepared under anaerobic conditions, set at 4° C.
Protocol: Ten ml of B. thetaiotaomicron culture was centrifuged (2000 g, 12 min), the pellet was washed with 0.05M phosphate buffered saline pH 7.2 and then resuspended in commercial jelly [10 ml, 37° C., prepared under anaerobic conditions]. The jelly was poured into a sterile petri dish under CO2 and allowed to set at 4° C. Approximately 1 hour later, the jelly was cut into weighed amounts (0.5 g, ˜10^8 CFU B. thetaiotaomicron) and fed to the rats. The bacterium remained viable for at least 6 hours under these conditions. However, usually all jelly was eaten within a few minutes of being placed in the cage.

[9] = system: S. enteritidis; experiment: S. enteritidis infection of minimal flora rats, MPO in ileal mucosa; conditions: 10^8 cfu B. thetaiotaomicron in jelly for 19 days, then 10^8 S. enteritidis, 6 days post infection, P<0.001
[10] = Skeletal (gastrocnemius) muscle accretion in rats; format: in vivo, Hooded Lister rats; conditions: 6 d post-infection
Protocol: Gastrocnemius muscle is taken as representative of skeletal muscle and total skeletal muscle in young Hooded-Lister rats as approximately 47 times the weight of the gastrocnemius muscle (Bardocz et al, 1996). Initial weight of gastrocnemius muscles 804±10 mg wet weight [194±7 mg dry weight] per 100 g initial fresh body weight.
Further pieces of jejunum and ileum (15-25 cm from the pylorus and 15-25 cm from the ileo-caecal junction respectively) were collected and frozen in liquid nitrogen for biochemical analysis, as was the remaining small intestine tissue (˜40 cm), liver, spleen, kidney, thymus, lungs, heart and gastrocnemius hind-limb muscles. These were weighed, freeze-dried and reweighed.

[11] = system: NF-κB; experiment: NF-κB luciferase reporter in transfected Caco-2 cells; format: cell-based; conditions: bacteria 2 hours, luciferase after 8 hours
Protocol: C) Caco-2 cells were transfected with PPARγ DN and a NF-κB luciferase reporter construct (DN), and compared with control cells transfected with NF-κB luciferase reporter alone (MOCK).
Double transfection studies with PPARγ DN and an NF-κB luciferase reporter (gifted by Dr Israel, Pasteur Institute, Paris, France) were performed. […] To avoid this we stimulated the cells for 2 hours and then removed the bacteria by washing and determined luciferase protein production after 8 hours. We found both in the control and PPARγ DN transfected cells, that S. enteritidis induced NF-κB activation and luciferase protein synthesis (P<0.001) (FIG. 5C). In the PPARγ wild type (NT) transfected cells (luciferase alone) this response was attenuated by B. thetaiotaomicron (P<0.028), but not in dominant negative (DN) transfected cells (FIG. 5C). Similarly, there was modification of the cellular distribution of RelA, as determined using immunocytochemistry and laser scanning confocal microscopy (LSCM), in cells transfected with green fluorescent protein (GFP) with and without PPARγ DN. In the control cells (GFP alone) the distribution of RelA was predominantly cytosolic as described above for non-transfected cells (FIG. 5D (insert B,C)). In PPARγ DN transfected cells, the distribution was irregular and RelA localised to both the cytosolic and nuclear compartments (FIG. 5D, (insert D, E)).

[12] = system: leukocyte-elastase; experiment: Elastase in faeces or intestine contents; format: in vivo, Hooded Lister rats; conditions: mean ± SD, n = 6
Protocol: Freeze dried faeces or intestine contents were extracted (1:10 w/v) in ice-cold 0.5M potassium phosphate pH 6.0 containing HETAB, EDTA and NaN3 (1 g/l), left on ice for 30 min, centrifuged (3000 g, 30 min, 4° C.) and the supernatants were frozen.
Sample or leukocyte-elastase (Sigma-Aldrich, Poole, UK) was serially diluted in 0.2M Tris HCl pH 8.0 containing 1 M NaCl and leupeptin (1 mg/l) on a microtiter plate. Substrate (N-succinyl-ala-ala-val-p-nitroanilide, 0.2 g/l, Sigma-Aldrich, Poole, UK) was added and the absorbance at 405 nm monitored immediately and at intervals up to 20 hours during incubation at 37° C. Values were expressed as leukocyte-elastase equivalents.

[13] = system: Myeloperoxidase (MPO); experiment: Myeloperoxidase (MPO) activity in rat tissue; format: in vivo, Hooded Lister rats; conditions: 6d post-infection, mean ± SD, n = 6
Protocol: Tissue samples were homogenised (1:80 w/v) in ice-cold 5 mM potassium phosphate buffer pH 6.0 using a Janke-Kunkel Ultra-Turrax T25 tissue homogeniser at 20,000 rev min^−1 for 30 seconds and centrifuged (3000 g×30 min, 4° C.). The pellet (1:20 w/v) was sonicated (3×5 sec) in ice-cold 0.5M potassium phosphate pH 6.0 containing hexadecyltrimethyl-ammonium bromide (HETAB, 5 g/l) and ethylenediaminetetraacetic acid (EDTA, 3.72 g/1), left on ice for 30 min and centrifuged (3000 g×30 min, 4° C.) [Stucchi et al, 2000]. The supernatant was frozen until assayed. Myeloperoxidase (MPO) activity was determined by monitoring H2O2 dependent oxidation of 3,3′,5,5′-tetramethylbenzidine (TMB, Dynex Technologies, Ashford, UK) in 50 mM potassium phosphate buffer pH 6.0 (Zimmerman and Granger, 1990). Absorbance at 450 nm was measured after termination of the reaction with 0.18M H2SO4. Human myeloperoxidase (Calbiochem, UK) was used as a standard and values were expressed as MPO equivalents.

[14] = system: RelA; experiment: Immunoprecipitation of RelA / PPARγ from Caco-2 cells; format: cell-based
Text: Immuno-precipitates were resolved using SDS-PAGE. Western blots were developed using a monoclonal anti-RelA [NF-κB p65], anti-PPARγ antibodies and anti-HDAC3 (Santa Cruz).
A) Immuno-detection RelA. Caco-2 cells prepared following standard culture protocol, treatment groups (1-4). Immunoprecipitates prepared using anti-PPARγ sepharose conjugate.

[15] = Body weight, tissue weights and composition, faecal output in rats; format: in vivo, Hooded Lister rats
Text: Twenty-four male specific pathogen-free Hooded Lister rats (40 g), bred in the small animal unit of the Rowett Research Institute, were weaned at 19 days and immediately transferred to a Class II facility. They were housed individually in metabolism cages (Techniplast, Kettering, UK) within flexi-film isolators (Moredun, Animal Health, Penicuik, UK) for the duration of the study (21 days). Nesting tunnels were provided in each metabolism cage and cages were arranged within the isolators to allow sight of but not contact with other animals. Sterile distilled water was available at all times. Rats were weighed daily and faeces was collected throughout the study.
Data are the means ISD (n=3). The rats were initially given free access to a high quality semi-synthetic (100 g protein kg^−1) lactalbumin-based diet (Grant et al, 2000). […] This was the average daily free intake observed for rats of the same age after oral infection with Salmonella enterica var. Enteritidis and around 70% of the free intake of this diet by non-infected animals. The rats were housed and managed in this manner from weaning to reduce environmental exposure to bacteria and cross-contamination post-weaning (Grant, 1996).
Twelve of the rats were given B. thetaiotaomicron (approximately 10^8 CFU) once daily from weaning (19d) through to completion of the study. At 34 days of age, six rats pre-treated with B. thetaiotaomicron and six controls were given, by gavage, a single dose of 0.8 ml of Salmonella serovar Enteritidis S1400 culture (approximately 10^9 CFU). The remaining rats were given the equivalent amount of culture medium. All rats were returned to their cages and fed lactalbumin-based diet (7 g rat^−1 day^−1) for a further 6 days. On the final day, the rats were fed 2 g of diet and were killed by halothane (Rhone Merieux, Essex, UK) overdose and exsanguination exactly two hours later. The abdomen was opened and tissues were aseptically removed. […]
DNA, RNA, protein were determined as before by the diphenylamine, orcinol and modified Lowry methods (Grant et al, 2000). […]

[16] = system: RelA [NF-κB p65]; experiment: Supershift EMSA on Caco-2 nuclear extracts; format: cell-based; conditions: S. enteritidis, 2 hours, heat inactivation 70° C. 15 minutes
Protocol: Where indicated B. thetaiotaomicron was heat inactivated at 70° C. for 15 minutes prior to its addition to the Caco-2 cells.
Nuclear extracts were incubated with single stranded ^32P-labeled oligonucleotide probes containing consensus binding sequences for NF-κB (SEQ ID NO:1 5′-[…] -3′) or AP-1 (SEQ ID NO: 2 5′-[…] -3′), separated by electrophoresis and visualized by autoradiography. EMSA supershifts were performed using specific NF-κB subunit antibodies. Effects of B. thetaiotaomicron on NFκB and AP-1 signaling were determined by EMSA, western blotting (protein and phosphoprotein), promoter-specific reporter analysis and target gene expression (eg. fos and jun).

[17] = system: human PMNs; experiment: Transepithelial migration of PMN through Caco-2 monolayer (MPO assay); conditions: Caco-2 Transwell, S. enteritidis, MPO readout
[18] = 800 nM for 4 hours, cells treated with S. enteritidis alone

## CCCCC/C=C/C=C1/C(=O)C=C[C@@H]1C/C=C\CCCC(=O)O [15d-PGJ2, 15-deoxy-Δ^12,14-prostaglandin J2, reference compound]
[1]; 10^8 S. enteritidis plus drug 10-30 μM, 2 hours, Northern
  Activation of inflammatory cytokine expression (TNF-α, IL-8, COX-2) by S. enteritidis: attenuated
[2]; Caco-2 cells, 10^8 S. enteritidis plus 30 μM ligand
  PPARγ mRNA after PPAR ligand: decreased

## CCC(=C/[C@H](C)C/C=C/C(C)=C/[C@@H](C)C(=O)[C@@H](C)[C@H](O)[C@@H](C)C/C(C)=C/C(=O)O)/C=C/[C@@H]1OC(=O)C=C[C@@H]1C [LMB, leptomycin B]
[3]; cells co-cultured with S. enteritidis and B. thetaiotaomicron
  RelA in nuclei after inhibition of CRM-1-dependent nuclear export: caused an accumulation of RelA in nuclei
[4]; Caco-2 cells, inhibitor treatment
  Nucleocytoplasmic shuttling of PPARγ induced by co-culture of S. enteritidis and B. thetaiotaomicron: not blocked

## CC(/C=C/C(=O)NO)=C\[C@@H](C)C(=O)c1ccc(N(C)C)cc1 [TSA, trichostatin A]
[3]; [18]
  p65 nuclear accumulation after HDAC inhibition: partial p65 accumulation
[4]; [18]
  Exit of PPARγ to cytosol after HDAC inhibition: accelerated exit of PPARγ to cytosol
[4]; S. enteritidis-treated Caco-2 cells
  PPARγ localisation in S. enteritidis-treated Caco-2 cells with inhibitor: induce punctate cytosolic labeling and export of PPARγ from the nucleus

## Bacteroides thetaiotaomicron [BT]
[3]; Caco-2 cells, 10^8 S. enteritidis, 2 hours
  Translocation of RelA to the nucleus: abolish the translocation of RelA to the nucleus
[5]
  IL-8 protein in culture supernatants: 230 pg/mL
[6]
  Faeces MPO: 2.6 ± 1.0^a μg/d
[7]
  p38 phosphorylation induced by Salmonella: not modified
[8]
  Time the bacterium remained viable in jelly: at least 6 hours
[9]
  Level of MPO in the ileal mucosa: significantly attenuated
[10]
  Gastrocnemius muscle accretion rate, dry weight: 4.2±1.0 mg dry weight per day
  Gastrocnemius muscle accretion rate, wet weight: 17.0±4.2 mg wet weight per day
[11]
  S. enteritidis induced NF-κB luciferase response, PPARγ dominant negative (DN) transfected cells: not
[11]; P<0.028
  S. enteritidis induced NF-κB luciferase response, PPARγ wild type cells (luciferase alone): attenuated
[12]; 6d post-infection
  Intestinal contents Elastase: 210 ± 0.38^a μg
[12]; during 6d post-infection
  Faeces Elastase: 5.7 ± 1.0^a μg/d
[1]
  IL-10 gene expression: not affected
[1]; 10^8 S. enteritidis with 10^9 commensal bacteria, 2 hours
  Induction of TNF-α, IL-8, MIP-2α and COX-2 expression following S. enteritidis exposure: attenuated
[13]
  Ileum (20 cm) MPO: 33.1 ± 6.2^a μg
  Jejunum (20 cm) MPO: 29.3 ± 5.2 µg
[14]; Caco-2 cells co-cultured with S. enteritidis and B. thetaiotaomicron, 2 hours
  HDAC3 association with RelA: promoted
[14]; cells treated with S. enteritidis in the presence of B. thetaiotaomicron
  Co-purification of RelA with PPARγ: co-purification of RelA
[15]; 6 d post-infection
  Water content of small intestine: 745 ± 24 mg/g
[15]; 6d post-infection, mean ± SD, n = 6
  Weight of Gastrocnemius muscles: 834 ± 22^a mg wet weight/100 g fresh body weight
[15]; specific pathogen-free rats, daily B. thetaiotaomicron from weaning
  Adverse effect on gut or systemic metabolism: no indications that B. thetaiotaomicron adversely affected gut or systemic metabolism
[2]; Caco-2 cells exposed to S. enteritidis and B. thetaiotaomicron
  mRNA for PPARα and PPARγ: decreased
[16]
  RelA response (supershift EMSA): inhibited
[17]
  PMN recruitment in vitro: confirmed the anti-inflammatory activity
[4]; Caco-2 cells, co-culture of S. enteritidis with B. thetaiotaomicron
  Cellular distribution of PPARγ: redistributed to the cytosol
